{
  "source": "patent US9364496B2",
  "about": "(ONCOGENEX TECHNOLOGIES INC., priority 2013, dated 2016)",
  "key": {"[1]": {"test_system": "NSCLC", "type": "in vivo, human", "conditions": "each group; loading doses then custirsen with a chemotherapeutic agent", "description": "At least 50 NSCLC patients are separated into two groups."}, "[2]": {"assay": "Phase I dose-escalation Study OGX-011-01, custirsen with neoadjuvant hormone therapy, prostate cancer patients", "conditions": "40 mg to 640 mg custirsen, repeated doses with neoadjuvant hormone therapy"}, "[3]": {"test_system": "clusterin", "conditions": "cited from earlier work"}, "[4]": {"test_system": "ovarian cancer", "type": "in vivo, human", "conditions": "each group; loading doses then custirsen with a chemotherapeutic agent", "description": "At least 50 ovarian cancer patients are separated into two groups."}},
  "note": "“Also recorded” adds a separate entry of the source. Oligonucleotides are written 5' to 3', each unit as a sugar letter and its base; * is a phosphorothioate linkage, no mark a phosphodiester; rarer units and linkages stand in square brackets, end groups in braces. Plain capitals give the bases only. e = 2'-O-(2-methoxyethyl) (MOE); [5mC] = 5-methylcytosine; d = 2'-deoxy (DNA)",
  "data": [
    {"substance": "Custirsen: anti-clusterin antisense oligonucleotide CAGCAGCAGAGTCTTCATCAT, phosphorothioate backbone, 2′-O-methoxyethyl at nucleotides 1-4 and 18-21, 5-methylcytosines at 1, 4, 19 (antisense e[5mC]*eA*eG*e[5mC]*dA*dG*dC*dA*dG*dA*dG*dT*dC*dT*dT*dC*dA*eT*e[5mC]*eA*eT; listed as Homo sapiens)", "values": [
      {"measurement": "cancer condition of patients", "setting": "[1]", "value": "improves"},
      {"measurement": "dose limiting toxicities, deaths, AEs leading to withdrawal", "setting": "[2]", "value": "No dose limiting toxicities, deaths, or adverse events (AEs) leading to withdrawal were reported"},
      {"measurement": "expression of clusterin", "setting": "[3]", "value": "potently regulated the expression of clusterin; also recorded: potently reduces the expression of clusterin"},
      {"measurement": "sensitization of cancer cells to chemotherapy", "setting": "[3]; human prostate, breast, ovarian, lung, renal, bladder, and melanoma cells", "value": "sensitizes"},
      {"measurement": "cancer condition of patients", "setting": "[4]", "value": "improves"}
    ]}
  ]
}
